Reference: ChEMBL document CHEMBL1156829 (Proc Natl Acad Sci U S A, 2008)

What was measured:
Plasmodium falciparum [1] = assay: NOVARTIS: Inhibition of Plasmodium falciparum 3D7 (drug-susceptible) proliferation in erythrocyte-based infection assay; format: functional, organism-based
Plasmodium falciparum [2] = assay: NOVARTIS: Inhibition of Plasmodium falciparum W2 (drug-resistant) proliferation in erythrocyte-based infection assay; format: functional, organism-based; settings: read-out: EC50
[3] = NOVARTIS: Cytotoxicity against human hepatocellular carcinoma cell line (Huh7); format: toxicity, cell-based, Huh-7; settings: Huh7 cells (hepatocellular carcinoma cell line)

| Compound | EC50 (Plasmodium falciparum [1]; Plasmodium falciparum, 3D7) | EC50 (Plasmodium falciparum [2]; Plasmodium falciparum, W2) | CC50 [3] | EC50 (Plasmodium falciparum [1]) | EC50 (Plasmodium falciparum [2]) |
| --- | --- | --- | --- | --- | --- |
| O=c1c2c3c(sc2[nH]c(=S)n1C1CCCCC1)CN(Cc1ccccc1)CC3 | > 1040 nM | > 1250 nM | > 10000 nM | – | – |
| CCCCCSc1scc(-c2ccc(O)c(O)c2)[n+]1C | 254 nM | 313 nM | > 100000 nM | – | – |
| CCCCN(CCCC)C(=O)Cn1ccc(=N)c2ccccc21 | 3740 nM | < 0.151 nM | > 100000 nM | – | – |
| COc1cccc(CNC(=O)C2CNCC2c2ccc(C(F)(F)F)cc2)c1 (configuration not stated) | 395 nM | 111 nM | > 7220 nM | – | – |
| CCSC(Cl)=C(NC(=O)c1ccccc1)[P+](c1ccccc1)(c1ccccc1)c1ccccc1.[O-][Cl+3]([O-])([O-])[O-] | 123 nM | 45.5 nM | 32200 nM | – | – |
| COc1ccc(C2c3cccn3-c3ccccc3N2C(=O)CN(C(=O)Nc2ccc(C(F)(F)F)cc2)C2CC2)cc1 (configuration not stated) | 7510 nM | 6200 nM | > 100000 nM | – | – |
| Cc1ccccc1NC(c1cccc(Cl)c1)c1nnnn1C1CCCCC1 (configuration not stated) | > 1720 nM | > 1070 nM | > 10000 nM | – | – |
| COC(=O)c1c(-c2c(F)cccc2Cl)noc1/C=C/Nc1ccc(OC)cc1 | 427 nM | > 1250 nM | > 10000 nM | – | – |
| N#Cc1c2c(c(NCc3ccccn3)n3c1nc1ccccc13)CCCC2 | 223 nM | 522 nM | > 100000 nM | – | – |
| O=C(Nc1ccccc1C(=O)O)c1cccc(NC(=O)c2ccco2)c1 | > 947 nM | 471 nM | > 10000 nM | – | – |
| COc1ccc(CCN(Cc2ccc(Cl)cc2)S(=O)(=O)c2ccc(S(N)(=O)=O)cc2)cc1OC | 4720 nM | > 12500 nM | 67300 nM | – | – |
| CCOC(=O)c1cccc(N2C(N)=NC(N)=NC2(C)C)c1 | 148 nM | > 1250 nM | > 10000 nM | – | – |
| CC(=O)Nc1ccccc1OC(F)(F)F | > 349 nM | 468 nM | > 13200 nM | – | – |
| O=C(NC1CC1)C1CCN(S(=O)(=O)c2ccc(Cl)cc2)CC1 | 5000 nM | 4720 nM | > 100000 nM | – | – |
| Cc1nc(-c2ccccn2)nc(NCCc2ccccc2)c1Cl | 1250 nM | 1510 nM | > 10000 nM | – | – |
| CN1C=CC(=Cc2sc3ccccc3[n+]2C)C=C1 | 208 nM | 558 nM | > 100000 nM | – | – |
| CCCCC(CC)C(=O)N(C)CCCNc1ccnc2cc(Cl)ccc12 (configuration not stated) | 514 nM | 233 nM | > 9260 nM | – | – |
| Cc1ccn2c(NC(C)(C)CC(C)(C)C)c(-c3ccccc3OC(=O)C3CCC3)nc2c1 | 822 nM | 75.7 nM | > 10000 nM | – | – |
| COC(=O)C1=C(C)NC2=C(C(=O)CC(c3ccc(OC)c(OC)c3)C2)C1c1cccc(O)c1 (configuration not stated) | 92 nM | 50 nM | > 100000 nM | – | – |
| COc1ccc(-c2cncc3ccc(C(=O)NCc4ccncc4)nc23)cc1 | > 1350 nM | 1190 nM | > 10000 nM | – | – |
| CCOc1ccccc1-n1c(N)c(C(=O)Nc2ccc(C)cc2)sc1=S | 1320 nM | 361 nM | > 100000 nM | – | – |
| CCC(=O)c1c(C)n(-c2ccc(Br)cc2)c2ccc(O)cc12 | > 769 nM | 1140 nM | > 10000 nM | – | – |
| Cc1ccc2[nH]c3c(NCCc4ccccc4F)ncnc3c2c1 | 835 nM | 843 nM | 16500 nM | – | – |

| Compound | EC50 (Plasmodium falciparum [1]; Plasmodium falciparum, 3D7) | EC50 (Plasmodium falciparum [2]; Plasmodium falciparum, W2) | CC50 [3] | EC50 (Plasmodium falciparum [1]) | EC50 (Plasmodium falciparum [2]) |
| --- | --- | --- | --- | --- | --- |
| COc1ccc2nc(C)cc(Nc3ccc(Oc4ccc(Cl)c5ccccc45)c(Cl)c3)c2c1 | 365 nM | 826 nM | 19800 nM | – | – |
| O=C(c1ccc2ccccc2c1)N1CCc2ccccc21 | 3500 nM | 4570 nM | > 100000 nM | – | – |
| CCn1c(C)cc(/C=C2\C(=O)NC(=O)N(c3cccc(Cl)c3)C2=O)c1C | > 674 nM | 679 nM | > 10000 nM | – | – |
| CC[n+]1c(/C=C/C=C2\N(C)c3ccccc3C2(C)C)n(-c2ccccc2)c2ccc(Cl)cc21 | > 1500 nM | > 1220 nM | > 10000 nM | – | – |
| CC(=O)N(C1=C(N2CCOCC2)C(=O)c2ccccc2C1=O)c1cccc(Cl)c1 | 214 nM | 187 nM | 4720 nM | – | – |
| CCCCSc1oc(C)nc1[P+](c1ccccc1)(c1ccccc1)c1ccccc1 | 203 nM | 583 nM | 2640 nM | – | – |
| CCOc1cc(C(Nc2cc(C)ccn2)c2ccc3cccnc3c2O)ccc1OCc1ccccc1 (configuration not stated) | > 1340 nM | 1030 nM | > 10000 nM | – | – |
| O=C(NCc1ccco1)c1cccc(Cl)c1Cl | > 1250 nM | 1340 nM | > 10000 nM | – | – |
| CCN(CC)CCCNc1ccnc2cc3ccccc3cc12 | 33.8 nM | 51.8 nM | 26200 nM | – | – |
| CCCCN(CCCC)CC(O)c1cc(Cl)cc2c1-c1ccc(Cl)cc1/C2=C/c1ccc(Cl)cc1 (configuration not stated) [LUMEFANTRINE] | 777 nM | 518 nM | > 10000 nM | – | – |
| N#CCSc1ncccc1C(=O)NCCc1ccc(Oc2ccccc2)cc1 | 1630 nM | > 130 nM | > 10000 nM | – | – |
| CCN1CCN(C(=O)Nc2ccc(Cc3ccc(NC(=O)N4CCN(CC)CC4)cc3)cc2)CC1 | 2390 nM | 1720 nM | 62000 nM | – | – |
| Cc1cc2cc(C3C(C#N)=C(N)Oc4c3ccc3ccccc43)c(Cl)nc2cc1Cl (configuration not stated) | 240 nM | 629 nM | > 100000 nM | – | – |
| Cc1ccc(CN2C[C@H](n3cnnn3)C[C@H]2C(=O)NCCc2cccc(Cl)c2)c(C)c1 | 1320 nM | 1120 nM | > 10400 nM | – | – |
| Cc1cc(Nc2ccc(I)cc2)n2ncnc2n1 | 1560 nM | 3590 nM | > 100000 nM | – | – |
| CC(C)C(=O)NC(Nc1ccc([N+](=O)[O-])cc1)C(Cl)(Cl)Cl (configuration not stated) | 195 nM | 104 nM | 68300 nM | – | – |
| CN(CCCNc1ccnc2cc(Cl)ccc12)C(=O)c1ccc(Br)cc1 | 688 nM | 13.4 nM | 2610 nM | – | – |
| COc1ccc(CN2CCOc3ccc(C(C)(O)CN(C)C)cc3C2)cc1C (configuration not stated) | 823 nM | 193 nM | > 100000 nM | – | – |
| O=C(O)[C@@H]1C[C@H](CP(=O)(O)O)CCN1 [SELFOTEL] | 1320 nM | > 1210 nM | > 5060 nM | – | – |
| CCN(CC)CCCNC(=S)N(Cc1cc2ccc(OC)cc2[nH]c1=O)C1CCCCC1 | 4030 nM | 1120 nM | 40800 nM | – | – |
| CN(C)CCCNc1ncnc2c1[nH]c1ccc(Cl)cc12 | 26.1 nM | 43.7 nM | 20700 nM | – | – |
| CCCCn1c(NN=C2C(=O)Nc3ccccc32)nc2c1c(=O)[nH]c(=O)n2C | 1600 nM | 1130 nM | > 10000 nM | – | – |
| O=[N+]([O-])c1ccc(Nc2nc(NN=Cc3ccccc3I)nc(Nc3ccccc3)n2)cc1 | 846 nM | 2820 nM | 32800 nM | – | – |

| Compound | EC50 (Plasmodium falciparum [1]; Plasmodium falciparum, 3D7) | EC50 (Plasmodium falciparum [2]; Plasmodium falciparum, W2) | CC50 [3] | EC50 (Plasmodium falciparum [1]) | EC50 (Plasmodium falciparum [2]) |
| --- | --- | --- | --- | --- | --- |
| OCCNc1nc(Nc2ccccc2)nc2ccccc12 | 167 nM | 626 nM | 47500 nM | – | – |
| CCN1/C(=C/c2cccc[n+]2C)Sc2cc(NC(C)=O)ccc21 | 1400 nM | > 1250 nM | > 10000 nM | – | – |
| COc1ccc(-c2c[n+](CC(=O)O[C@H]3C[C@H](C)CC[C@@H]3C(C)C)c3n2CCCCC3)cc1 | 450 nM | 404 nM | 16500 nM | – | – |
| O=C(Nc1ccc(-c2nc3ccccc3[nH]2)cc1)c1ccc(Cl)c(Cl)c1 | 523 nM | 1820 nM | > 100000 nM | – | – |
| Cc1ccc(C[n+]2cc(-c3ccc(C)cc3)n3c2CCC3)cc1 | 538 nM | 240 nM | 34500 nM | – | – |
| COc1cc(OC)cc(-n2c(=O)c3sccc3n(CC(=O)c3ccc(F)cc3)c2=O)c1 | > 1250 nM | > 1170 nM | > 10000 nM | – | – |
| CCOc1ccc2nc3cc(NC(=O)c4ccc(C)cc4)ccc3c(N)c2c1 | > 1190 nM | 997 nM | > 10000 nM | – | – |
| Cn1c(SCC2CCCO2)nnc1C1CCN(C/C=C/c2ccccc2)CC1 (configuration not stated) | > 1280 nM | > 758 nM | > 3890 nM | – | – |
| COc1cc(C(=O)N2C(C(=O)Nc3ccccc3F)CSC2c2ccc(C(C)(C)C)cc2)cc(OC)c1OC (configuration not stated) | 1040 nM | 1280 nM | > 2310 nM | – | – |
| CC(=O)Oc1ccccc1-c1nc2cc(C)ccn2c1NC(C)(C)CC(C)(C)C | 389 nM | < 5.33 nM | > 10000 nM | – | – |
| CC(=O)NC(CO)C(O)c1ccc([N+](=O)[O-])cc1 (configuration not stated) | > 9720 nM | 2050 nM | > 100000 nM | – | – |
| COC(=O)C1=CN(Cc2ccc(Cl)cc2)C=C(C(=O)OC)C1c1ccc(Cl)c(Cl)c1 | > 8190 nM | 2360 nM | > 100000 nM | – | – |
| COc1ccc(C2CC(=O)C3=C(C2)NC(C)=C(C(=O)OC2CCCC2)C3c2ccccc2C)cc1OC (configuration not stated) | 33.4 nM | 13.1 nM | > 100000 nM | – | – |
| CC(Sc1nnc2c3ccccc3n(Cc3ccccc3)c2n1)C(=O)N1CCN(C(=O)C(c2ccccc2)c2ccccc2)C(C)C1 (configuration not stated) | 914 nM | 127 nM | > 10000 nM | – | – |
| CCN1CCN(c2cc(C)c3cc(NC(=O)/C=C/c4ccc(OC)cc4)ccc3n2)CC1 | 905 nM | 762 nM | > 10400 nM | – | – |
| CN1CC=C(/C=C/c2c[nH]c3ccccc23)CC1 | 483 nM | 100 nM | > 10000 nM | – | – |
| CCc1cccc(NC(=O)CCCn2c(=O)c3cccn3c3ccccc32)c1 | > 1560 nM | 826 nM | > 10000 nM | – | – |
| O=C(Nc1ccc(C2=NCCN2)cc1)c1cc(Cl)c(C(=O)Nc2ccc(C3=NCCN3)cc2)cc1Cl | 66 nM | 308 nM | > 10000 nM | – | – |
| COc1ccc(C=CC(=O)NC(=O)c2ccccc2O)cc1OC | 1290 nM | 1390 nM | > 100000 nM | – | – |
| Cc1nc(-c2nc3c(s2)CN(C(=O)CCc2cccnc2)CC3)cs1 | 1090 nM | 335 nM | > 10000 nM | – | – |
| Cc1ccc(C2C3=C(CC(C)(C)CC3=O)N(Cc3ccc4c(c3)OCO4)C3=C2C(=O)CC(C)(C)C3)cc1 | 3750 nM | 1770 nM | > 100000 nM | – | – |
| CN(C=Cc1sc2ccc3ccccc3c2[n+]1C)c1ccccc1 | – | – | 64300 nM | 239 nM | 153 nM |
| NN1C(=O)NC(=O)C1Nc1cccc([N+](=O)[O-])c1 (configuration not stated) | 976 nM | 139 nM | > 12700 nM | – | – |
